Measured values from PubChem BioAssay AID2060887 (Molecular Pharmacology Branch, DTP, NCI, 2025).

System: 782815-120-R-J1-PDC complex spheroid viability
Assay: Anticancer human tumor 782815-120-R-J1-PDC patient-derived colon adenocarcinoma cell line growth inhibition [RAS]
Conditions: for IC50: curve of first compound; for viability, T/C: stronger effect = lower value; active means viability on the fitted dose curve at most 10% of control; inactive means the rest
How it was run: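 Agents were tested in combination matrices in half-log decrements from a top concentration at or near clinical Cmax (10 microM if undetermined). Targets were multi-cell spheroids of tumour lines plus HUVEC and MSC stromal cells.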
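Further: spheroids exposed to compounds for 7 days before reading.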
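Wherever viability, T/C is given: 100% = DMSO vehicle control viability.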

CC(=O)OC12COC1CC(O)C1(C)C(=O)C(O)C3=C(C)C(OC(=O)C(O)C(NC(=O)OC(C)(C)C)c4ccccc4)CC(O)(C(OC(=O)c4ccccc4)C21)C3(C)C (centres undefined) + CCn1c(-c2cc(N3CCN(C)CC3)cnc2C(C)OC)c2c3cc(ccc31)-c1csc(n1)CC(NC(=O)C1CC1C)C(=O)N1CCCC(N1)C(=O)OCC(C)(C)C2
< 31.6 nM: IC50 (second compound 0.000949 µM) | IC50 (second compound 0.003 µM) | IC50 (second compound 0.00949 µM) | IC50 (second compound 0.03 µM) | IC50 (second compound 0.0949 µM) | IC50 (second compound 0.3 µM)
inactive: viability, T/C (second compound 0.000949 µM, first compound 0.0316 µM) 26% | viability, T/C (second compound 0.000949 µM, first compound 0.1 µM) 27.8% | viability, T/C (second compound 0.000949 µM, first compound 0.316 µM) 23.1% | viability, T/C (second compound 0.000949 µM, first compound 1 µM) 28.1% | viability, T/C (second compound 0.000949 µM, first compound 3.16 µM) 27.1% | viability, T/C (second compound 0.000949 µM, first compound 10 µM) 32.5% | viability, T/C (second compound 0.003 µM, first compound 0.0316 µM) 25.8% | viability, T/C (second compound 0.003 µM, first compound 0.1 µM) 24.6% | viability, T/C (second compound 0.003 µM, first compound 0.316 µM) 23.2% | viability, T/C (second compound 0.003 µM, first compound 1 µM) 22% | viability, T/C (second compound 0.003 µM, first compound 3.16 µM) 21.3% | viability, T/C (second compound 0.003 µM, first compound 10 µM) 25.7% | viability, T/C (second compound 0.00949 µM, first compound 0.0316 µM) 19.1% | viability, T/C (second compound 0.00949 µM, first compound 0.1 µM) 16.4% | viability, T/C (second compound 0.00949 µM, first compound 0.316 µM) 15.1% | viability, T/C (second compound 0.00949 µM, first compound 1 µM) 16.4% | viability, T/C (second compound 0.00949 µM, first compound 3.16 µM) 19.1% | viability, T/C (second compound 0.00949 µM, first compound 10 µM) 16.1% | viability, T/C (second compound 0.03 µM, first compound 0.0316 µM) 12.5% | viability, T/C (second compound 0.03 µM, first compound 0.1 µM) 13.5% | viability, T/C (second compound 0.03 µM, first compound 0.316 µM) 13.3% | viability, T/C (second compound 0.03 µM, first compound 1 µM) 13.3% | viability, T/C (second compound 0.03 µM, first compound 3.16 µM) 14.8% | viability, T/C (second compound 0.03 µM, first compound 10 µM) 13.3% | viability, T/C (second compound 0.0949 µM, first compound 0.0316 µM) 12.6% | viability, T/C (second compound 0.0949 µM, first compound 0.1 µM) 12.4% | viability, T/C (second compound 0.0949 µM, first compound 0.316 µM) 10.3% | viability, T/C (second compound 0.0949 µM, first compound 1 µM) 12.2% | viability, T/C (second compound 0.0949 µM, first compound 3.16 µM) 11.3% | viability, T/C (second compound 0.0949 µM, first compound 10 µM) 11.3% | viability, T/C (second compound 0.3 µM, first compound 0.0316 µM) 13% | viability, T/C (second compound 0.3 µM, first compound 0.1 µM) 12.6% | viability, T/C (second compound 0.3 µM, first compound 0.316 µM) 9.92% | viability, T/C (second compound 0.3 µM, first compound 1 µM) 9.28% | viability, T/C (second compound 0.3 µM, first compound 3.16 µM) 10.9% | viability, T/C (second compound 0.3 µM, first compound 10 µM) 13%

CCN1CCN(Cc2ccc(Nc3ncc(F)c(-c4cc(F)c5nc(C)n(C(C)C)c5c4)n3)nc2)CC1 + C=CC(=O)N1CCN(c2nc(OCC3CCCN3C)nc3c(F)c(-c4nc(N)cc(C)c4C(F)(F)F)c(Cl)cc23)C(C)C1
> 1000 nM: IC50 (second compound 0.00316 µM) | IC50 (second compound 0.01 µM) | IC50 (second compound 0.0316 µM) | IC50 (second compound 0.1 µM) | IC50 (second compound 0.316 µM) | IC50 (second compound 1 µM)
inactive: viability, T/C (second compound 0.00316 µM, first compound 0.00316 µM) 95.3% | viability, T/C (second compound 0.00316 µM, first compound 0.01 µM) 98.8% | viability, T/C (second compound 0.00316 µM, first compound 0.0316 µM) 99.3% | viability, T/C (second compound 0.00316 µM, first compound 0.1 µM) 101% | viability, T/C (second compound 0.00316 µM, first compound 0.316 µM) 105% | viability, T/C (second compound 0.00316 µM, first compound 1 µM) 128% | viability, T/C (second compound 0.01 µM, first compound 0.00316 µM) 98.9% | viability, T/C (second compound 0.01 µM, first compound 0.01 µM) 97.2% | viability, T/C (second compound 0.01 µM, first compound 0.0316 µM) 95.8% | viability, T/C (second compound 0.01 µM, first compound 0.1 µM) 98.2% | viability, T/C (second compound 0.01 µM, first compound 0.316 µM) 104% | viability, T/C (second compound 0.01 µM, first compound 1 µM) 118% | viability, T/C (second compound 0.0316 µM, first compound 0.00316 µM) 102% | viability, T/C (second compound 0.0316 µM, first compound 0.01 µM) 105% | viability, T/C (second compound 0.0316 µM, first compound 0.0316 µM) 99.5% | viability, T/C (second compound 0.0316 µM, first compound 0.1 µM) 103% | viability, T/C (second compound 0.0316 µM, first compound 0.316 µM) 108% | viability, T/C (second compound 0.0316 µM, first compound 1 µM) 118% | viability, T/C (second compound 0.1 µM, first compound 0.00316 µM) 93.4% | viability, T/C (second compound 0.1 µM, first compound 0.01 µM) 96.1% | viability, T/C (second compound 0.1 µM, first compound 0.0316 µM) 106% | viability, T/C (second compound 0.1 µM, first compound 0.1 µM) 103% | viability, T/C (second compound 0.1 µM, first compound 0.316 µM) 108% | viability, T/C (second compound 0.1 µM, first compound 1 µM) 116% | viability, T/C (second compound 0.316 µM, first compound 0.00316 µM) 96.5% | viability, T/C (second compound 0.316 µM, first compound 0.01 µM) 96.5% | viability, T/C (second compound 0.316 µM, first compound 0.0316 µM) 102% | viability, T/C (second compound 0.316 µM, first compound 0.1 µM) 99.3% | viability, T/C (second compound 0.316 µM, first compound 0.316 µM) 111% | viability, T/C (second compound 0.316 µM, first compound 1 µM) 117% | viability, T/C (second compound 1 µM, first compound 0.00316 µM) 92% | viability, T/C (second compound 1 µM, first compound 0.01 µM) 90.8% | viability, T/C (second compound 1 µM, first compound 0.0316 µM) 104% | viability, T/C (second compound 1 µM, first compound 0.1 µM) 96.1% | viability, T/C (second compound 1 µM, first compound 0.316 µM) 108% | viability, T/C (second compound 1 µM, first compound 1 µM) 123%
